The results in this text go back to ChEMBL document CHEMBL1201862, “PubChem BioAssay data set” (2004).

Values joined by “and” are separate entries in the source; they are usually repeats but may differ in a detail not shown here. Equal values may be shown once.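 All cell lines were grown in 96-well plates and treated with compound for 48 hours. GI50: concentration for 50% inhibition of growth.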 Active and inactive are the calls of the source. Rule as the data show it: active = GI50 up to about 1.1 µM and inactive = higher.

Common to all, as to test: NCI tumour cell line growth inhibition, 48 h
Assay [1] relates to SF-268.
Assay [2] deals with SK-MEL-5.
Assay [3] deals with Malme-3M.
In assay [4] the test system is CAKI-1.
Assay [5] deals with SNB-19.
Assay [6] relates to UO-31.
In assay [7] the test system is SK-OV-3.
The test system of assay [8] is SN12C.
For assay [9], the system named is M14.
In assay [10] the test system is OVCAR-4.
Assay [11] relates to DU-145.
Assay [12] has as its system SF-295.
The test system of assay [13] is SR.
In assay [14] the test system is UACC-257.
The test system of assay [15] is MDA-MB-231.
Assay [16] deals with MDA-N.
For assay [17], the system named is MOLT-4.
For assay [18], the system named is SNB-75.
For assay [19], the system named is BT-549.

Regarding `CSC1CC2C(CC1(C)O)C2(C)C` (stereo not drawn), the GI50 in assay [1] was > 100 µM (inactive); in assay [2] it was > 100 µM (inactive) and 53.8 µM (inactive); in assay [3] it was > 100 µM (inactive); in assay [4], > 100 µM (inactive); in assay [5], > 100 µM (inactive); in assay [6] it was > 100 µM (inactive) and 65 µM (inactive). The GI50 in assay [7], in [8], in assay [9] and in assay [10] was > 100 µM (inactive) throughout.

For the compound `CC1=NN(c2cccc(Cl)c2)C2(C1=Cc1ccccc1)C(Cl)C(=O)N2c1nc2ccccc2s1` (stereo not drawn), the GI50 is 23.2 µM (inactive) in assay [1]; 13.3 µM (inactive) in assay [2]; 15 µM (inactive) in [11]; 17.7 µM (inactive) in assay [4]; 20.2 µM (inactive) in [12]; 24.2 µM (inactive) in assay [13]. In addition, the GI50 in assay [14] is 24 µM (inactive); in assay [15] it was 18.4 µM (inactive); in [6], 16.3 µM (inactive); in assay [16], 19.8 µM (inactive); in assay [7], 20.9 µM (inactive); in assay [17], 23.5 µM (inactive). Further, the GI50 is 20.4 µM (inactive) in assay [9] and 19.1 µM (inactive) in [10].

As to `O/N=C/[C@H]1COC2(CCCCC2)O1`, the GI50 in [1], in assay [2], in assay [11], in assay [3], in assay [18] and in assay [12] was > 100 µM (inactive) each time. Besides, the GI50 in [14], in [15], in assay [5], in [6], in assay [16] and in assay [7] was > 100 µM (inactive) throughout. The GI50 in assay [8], in [17], in [9] and in assay [10] was > 100 µM (inactive) in each case.

Turning to `Cc1nc2ccccc2c(=O)n1NC(=S)Nc1cccc(Cl)c1`, the GI50 in [1] is > 100 µM (inactive); in assay [2], > 100 µM (inactive); in assay [3] it was > 100 µM (inactive); in [4] it was > 100 µM (inactive); in [18] it was 72.9 µM (inactive); in assay [12] it was > 100 µM (inactive). The GI50 was 31.8 µM (inactive) in assay [13]; > 100 µM (inactive) in assay [14]; > 100 µM (inactive) in assay [6]; > 100 µM (inactive) in assay [7]; > 100 µM (inactive) in [8]; > 100 µM (inactive) in assay [17]. The GI50 in assay [9] and in assay [10] was > 100 µM (inactive) in each case.

Take `CCOC(=O)CCC(NC(=O)c1ccc(Oc2nc3ccc(C(F)(F)F)cc3nc2-c2ccccc2)cc1)C(=O)OCC` (stereo not drawn): the GI50 in [1] is 6.55 µM (inactive); in [2], 45.3 µM (inactive); in assay [11] it was > 100 µM (inactive); in assay [3], 14.2 µM (inactive); in assay [4] it was 7.19 µM (inactive); in [18], 9.46 µM (inactive). Besides, the GI50 in assay [12] was 12.2 µM (inactive); in assay [13] it was > 100 µM (inactive); in assay [14] it was > 64.7 µM (inactive); in assay [15] it was 8.13 µM (inactive); in assay [5], 12.7 µM (inactive); in assay [6] it was 20.6 µM (inactive). Further, the GI50 in assay [16] was > 100 µM (inactive); in assay [7] it was 15 µM (inactive); in assay [8], > 50.7 µM (inactive); in [17], > 100 µM (inactive); in assay [9], 67.6 µM (inactive); in [10], 6.22 µM (inactive).

As to `CSc1nc2c(=O)n(-c3ccccc3)c(=S)n(-c3ccccc3)c2s1`, the GI50 is 65 µM (inactive) in [1]; > 100 µM (inactive) in [2]; > 100 µM (inactive) in assay [11]; 64.1 µM (inactive) in [3]; 41.6 µM (inactive) in [18]; 97.5 µM (inactive) in assay [12]. Besides, the GI50 in assay [13] was > 100 µM (inactive); in assay [14] it was > 100 µM (inactive); in assay [15] it was 49.2 µM (inactive); in assay [5], 14.2 µM (inactive); in [6] it was > 100 µM (inactive); in assay [16], > 100 µM (inactive). For the same compound, the GI50 in [7] was 81.3 µM (inactive); in assay [8] it was 37.9 µM (inactive); in [17], 63.2 µM (inactive); in [9], 70 µM (inactive); in [10], 71.4 µM (inactive).

In the case of `O=C(Nc1ccc(S(=O)(=O)N[C@@H](C(=O)O)c2ccccc2)cc1)c1ccc(F)cc1`, the GI50 in assay [1], in assay [2], in assay [3], in [4], in assay [18] and in assay [12] was > 100 µM (inactive) each time. For the same compound, the GI50 in [14], in assay [5], in assay [6], in [7], in assay [8] and in [17] was > 100 µM (inactive) throughout. The GI50 in [9] and in assay [10] was > 100 µM (inactive) in each case.

With `CN(C)C(=O)C(F)(F)C(c1ccccc1Br)C1C(=O)N(C)C(=O)N(C)C1=O` (stereo not drawn), the GI50 in [1], in assay [2], in [11], in assay [3], in assay [4] and in assay [18] was > 100 µM (inactive) in each case. Besides, the GI50 in [12], in assay [14], in [15], in [5], in assay [6] and in assay [7] was > 100 µM (inactive) throughout. For the same compound, the GI50 in assay [9], in [19] and in assay [10] was > 100 µM (inactive) in each case.

`CC(=O)OC12c3ccccc3C(c3ccccc31)C1C(=O)N(c3ccccn3)C(=O)C12` (stereo not drawn): the GI50 in assay [1] was 87.3 µM (inactive); in assay [2], 27.9 µM (inactive); in assay [11] it was > 100 µM (inactive); in [3], 31.8 µM (inactive); in [4] it was > 100 µM (inactive); in assay [18], 23.8 µM (inactive). The GI50 in [12] was 58.2 µM (inactive); in assay [14], 31.3 µM (inactive); in assay [15], 77.8 µM (inactive); in assay [5] it was 14.7 µM (inactive); in assay [6], 15.8 µM (inactive); in assay [7] it was > 100 µM (inactive). Also, the GI50 in assay [8] was 81.1 µM (inactive); in [17] it was 32.8 µM (inactive); in assay [9], 51.8 µM (inactive); in assay [19] it was 38.8 µM (inactive); in [10], > 100 µM (inactive).

Take `O/N=C/c1cc2c(cc1Br)OCO2`: the GI50 in [2], in assay [3], in assay [4], in [18], in assay [12] and in assay [13] was > 100 µM (inactive) in each case. Also, the GI50 in [14], in assay [5], in assay [6], in assay [7], in [8] and in assay [17] was > 100 µM (inactive) in each case. The GI50 in assay [9] and in assay [10] was > 100 µM (inactive) in each case.

Turning to `CN(C)c1ccc(-c2[nH]c(=O)c3ccccc3[n+]2C)cc1`, the GI50 in assay [1] is > 100 µM (inactive); in assay [2], 36.6 µM (inactive); in assay [11], > 100 µM (inactive); in assay [3] it was 47.6 µM (inactive); in [18], > 100 µM (inactive); in assay [12], > 100 µM (inactive). In addition, the GI50 is 49.4 µM (inactive) in [13]; 30.5 µM (inactive) in [14]; > 100 µM (inactive) in assay [15]; > 100 µM (inactive) in assay [5]; 39.4 µM (inactive) in assay [6]; > 100 µM (inactive) in [7]. For the same compound, the GI50 was > 100 µM (inactive) in assay [8], 51.9 µM (inactive) in assay [17], 41.3 µM (inactive) in [9] and 60.1 µM (inactive) in assay [10].

As to `Oc1cc(-c2ccccn2)nc2ccc(Cl)cc12`, the GI50 in assay [3] was 21.7 µM (inactive); in assay [18], 18.8 µM (inactive); in assay [13], > 100 µM (inactive); in assay [14] it was 31.7 µM (inactive); in assay [5], > 100 µM (inactive); in assay [6], 36.1 µM (inactive). In addition, the GI50 was 36 µM (inactive) in [7]; 48 µM (inactive) in assay [8]; 53.7 µM (inactive) in [17]; 36.9 µM (inactive) in assay [9]; 47.1 µM (inactive) in assay [10].

On to `Cc1[nH]n(-c2nc3c(c(=O)[nH]2)CCC3)c(=O)c1CCO`, for which the GI50 in [1] was > 100 µM (inactive); in assay [2], > 100 µM (inactive); in [11], > 100 µM (inactive); in assay [3], > 100 µM (inactive); in [4], > 100 µM (inactive); in assay [18], 0.0195 µM (active). In addition, the GI50 in [12], in assay [14], in assay [15], in assay [5], in assay [6] and in [16] was > 100 µM (inactive) in each case. In addition, the GI50 in [7], in assay [8], in assay [17], in assay [9] and in [10] was > 100 µM (inactive) throughout.
